# System: 454973-116-R2-J3-PDC complex spheroid viability
# Assay: Anticancer human tumor 454973-116-R2-J3-PDC patient-derived pancreatic carcinoma cell line growth inhibition [POLQ]
# Conditions: for IC50: curve of first compound; for viability, T/C: stronger effect = lower value
# Method in brief: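 Complex spheroid viability model combining PDC tumour cells with endothelial (HUVEC) and MSC stromal cells. Novobiocin, ART-558 or RP6685 were tested singly and in combination with standard and investigational anticancer drugs. Each was titrated in half-log steps from near clinical Cmax, or from 10 microM where Cmax was unknown.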
# [1] = second compound 0.0316 µM, first compound 0.0316 µM
# [2] = second compound 0.0316 µM, first compound 0.1 µM
# [3] = second compound 0.0316 µM, first compound 0.316 µM
# [4] = second compound 0.0316 µM, first compound 1 µM
# [5] = second compound 0.1 µM, first compound 0.0316 µM
# [6] = second compound 0.1 µM, first compound 0.1 µM
# [7] = second compound 0.1 µM, first compound 0.316 µM
# [8] = second compound 0.1 µM, first compound 1 µM
# [9] = second compound 0.316 µM, first compound 0.0316 µM
# [10] = second compound 0.316 µM, first compound 0.1 µM
# [11] = second compound 0.316 µM, first compound 0.316 µM
# [12] = second compound 0.316 µM, first compound 1 µM
# [13] = second compound 1 µM, first compound 0.0316 µM
# [14] = second compound 1 µM, first compound 0.1 µM
# [15] = second compound 1 µM, first compound 0.316 µM
# [16] = second compound 1 µM, first compound 1 µM
# [17] = second compound 3.16 µM, first compound 0.0316 µM
# [18] = second compound 3.16 µM, first compound 0.1 µM
# [19] = second compound 3.16 µM, first compound 0.316 µM
# [20] = second compound 3.16 µM, first compound 1 µM
# [21] = second compound 10 µM, first compound 0.0316 µM
# [22] = second compound 10 µM, first compound 0.1 µM
# [23] = second compound 10 µM, first compound 0.316 µM
# [24] = second compound 10 µM, first compound 1 µM
# [25] = second compound 0.0316 µM, first compound 3.16 µM
# [26] = second compound 0.0316 µM, first compound 10 µM
# [27] = second compound 0.1 µM, first compound 3.16 µM
# [28] = second compound 0.1 µM, first compound 10 µM
# [29] = second compound 0.316 µM, first compound 3.16 µM
# [30] = second compound 0.316 µM, first compound 10 µM
# [31] = second compound 1 µM, first compound 3.16 µM
# [32] = second compound 1 µM, first compound 10 µM
# [33] = second compound 3.16 µM, first compound 3.16 µM
# [34] = second compound 3.16 µM, first compound 10 µM
# [35] = second compound 10 µM, first compound 3.16 µM
# [36] = second compound 10 µM, first compound 10 µM
# 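Note: spheroids exposed to drugs for seven days before measurement.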
# 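Throughout, for viability, T/C: percent viability relative to DMSO vehicle control wells taken as 100%.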
compound,measurement,setting,value
C=CCn1c(=O)c2cnc(Nc3ccc(N4CCN(C)CC4)cc3)nc2n1-c1cccc(C(C)(C)O)n1 + Cc1cccc(N(C)C(=O)C2C(O)CCN2c2nc(C)cc(C(F)(F)F)c2C#N)c1,IC50,second compound 0.0316 µM,470 nM
same,IC50,second compound 0.1 µM,464 nM
same,IC50,second compound 0.316 µM,449 nM
same,IC50,second compound 1 µM,481 nM
same,IC50,second compound 3.16 µM,479 nM
same,IC50,second compound 10 µM,452 nM
same,"viability, T/C","second compound 0.0316 µM, first compound 0.00316 µM",109%
same,"viability, T/C","second compound 0.0316 µM, first compound 0.01 µM",103%
same,"viability, T/C",[1],105%
same,"viability, T/C",[2],106%
same,"viability, T/C",[3],71.5%
same,"viability, T/C",[4],9.25%
same,"viability, T/C","second compound 0.1 µM, first compound 0.00316 µM",98%
same,"viability, T/C","second compound 0.1 µM, first compound 0.01 µM",104%
same,"viability, T/C",[5],102%
same,"viability, T/C",[6],108%
same,"viability, T/C",[7],70.7%
same,"viability, T/C",[8],8.44%
same,"viability, T/C","second compound 0.316 µM, first compound 0.00316 µM",96.6%
same,"viability, T/C","second compound 0.316 µM, first compound 0.01 µM",98.9%
same,"viability, T/C",[9],103%
same,"viability, T/C",[10],103%
same,"viability, T/C",[11],68.4%
same,"viability, T/C",[12],7.81%
same,"viability, T/C","second compound 1 µM, first compound 0.00316 µM",113%
same,"viability, T/C","second compound 1 µM, first compound 0.01 µM",97.3%
same,"viability, T/C",[13],104%
same,"viability, T/C",[14],110%
same,"viability, T/C",[15],74.1%
same,"viability, T/C",[16],7.99%
same,"viability, T/C","second compound 3.16 µM, first compound 0.00316 µM",112%
same,"viability, T/C","second compound 3.16 µM, first compound 0.01 µM",106%
same,"viability, T/C",[17],99.7%
same,"viability, T/C",[18],102%
same,"viability, T/C",[19],72.8%
same,"viability, T/C",[20],9.03%
same,"viability, T/C","second compound 10 µM, first compound 0.00316 µM",105%
same,"viability, T/C","second compound 10 µM, first compound 0.01 µM",105%
same,"viability, T/C",[21],97%
same,"viability, T/C",[22],98.8%
same,"viability, T/C",[23],68.5%
same,"viability, T/C",[24],8.81%
C=CC(=O)N1CCN(c2nc(=O)n(-c3c(C)ccnc3C(C)C)c3nc(-c4c(O)cccc4F)c(F)cc23)C(C)C1 (stereo unspecified) + Nc1ccc(C#CCN(C(=O)Cc2ncc(C(F)(F)F)cc2C(F)(F)F)c2ccc(F)cc2)nn1,IC50,second compound 0.0316 µM,> 10000 nM
same,IC50,second compound 0.1 µM,> 10000 nM
same,IC50,second compound 0.316 µM,> 10000 nM
same,IC50,second compound 1 µM,> 10000 nM
same,IC50,second compound 3.16 µM,> 10000 nM
same,IC50,second compound 10 µM,> 10000 nM
same,"viability, T/C",[1],103%
same,"viability, T/C",[2],106%
same,"viability, T/C",[3],110%
same,"viability, T/C",[4],111%
same,"viability, T/C",[25],113%
same,"viability, T/C",[26],113%
same,"viability, T/C",[5],103%
same,"viability, T/C",[6],97.1%
same,"viability, T/C",[7],110%
same,"viability, T/C",[8],114%
same,"viability, T/C",[27],111%
same,"viability, T/C",[28],117%
same,"viability, T/C",[9],102%
same,"viability, T/C",[10],106%
same,"viability, T/C",[11],107%
same,"viability, T/C",[12],106%
same,"viability, T/C",[29],124%
same,"viability, T/C",[30],116%
same,"viability, T/C",[13],102%
same,"viability, T/C",[14],110%
same,"viability, T/C",[15],109%
same,"viability, T/C",[16],123%
same,"viability, T/C",[31],121%
same,"viability, T/C",[32],114%
same,"viability, T/C",[17],111%
same,"viability, T/C",[18],118%
same,"viability, T/C",[19],120%
same,"viability, T/C",[20],123%
same,"viability, T/C",[33],125%
same,"viability, T/C",[34],114%
same,"viability, T/C",[21],118%
same,"viability, T/C",[22],113%
same,"viability, T/C",[23],116%
same,"viability, T/C",[24],123%
same,"viability, T/C",[35],137%
same,"viability, T/C",[36],116%
C#Cc1c(F)ccc2cc(O)cc(-c3ncc4c(N5CC6CCC(C5)N6)nc(OCC56CCCN5CC(F)C6)nc4c3F)c12 (stereo unspecified) + Nc1ccc(C#CCN(C(=O)Cc2ncc(C(F)(F)F)cc2C(F)(F)F)c2ccc(F)cc2)nn1,IC50,second compound 0.0316 µM,< 31.6 nM
same,IC50,second compound 0.1 µM,< 31.6 nM
same,IC50,second compound 0.316 µM,< 31.6 nM
same,IC50,second compound 1 µM,< 31.6 nM
same,IC50,second compound 3.16 µM,< 31.6 nM
same,IC50,second compound 10 µM,< 31.6 nM
same,"viability, T/C",[1],47.5%
same,"viability, T/C",[2],36.1%
same,"viability, T/C",[3],28.4%
same,"viability, T/C",[4],24.1%
same,"viability, T/C",[25],19%
same,"viability, T/C",[26],18.1%
same,"viability, T/C",[5],46.1%
same,"viability, T/C",[6],36%
same,"viability, T/C",[7],26%
same,"viability, T/C",[8],24%
same,"viability, T/C",[27],22.2%
same,"viability, T/C",[28],18%
same,"viability, T/C",[9],49.8%
same,"viability, T/C",[10],35.8%
same,"viability, T/C",[11],28.9%
same,"viability, T/C",[12],25.5%
same,"viability, T/C",[29],22.1%
same,"viability, T/C",[30],19.6%
same,"viability, T/C",[13],46.2%
same,"viability, T/C",[14],35.1%
same,"viability, T/C",[15],29.3%
same,"viability, T/C",[16],25.4%
same,"viability, T/C",[31],22.7%
same,"viability, T/C",[32],18.8%
same,"viability, T/C",[17],43.8%
same,"viability, T/C",[18],35.4%
same,"viability, T/C",[19],25.6%
same,"viability, T/C",[20],25.2%
same,"viability, T/C",[33],21.9%
same,"viability, T/C",[34],18.5%
same,"viability, T/C",[21],44.6%
same,"viability, T/C",[22],39.3%
same,"viability, T/C",[23],32.8%
same,"viability, T/C",[24],28%
same,"viability, T/C",[35],23.4%
same,"viability, T/C",[36],23.5%

# From PubChem BioAssay AID1963846 (Molecular Pharmacology Branch, DTP, NCI, 2024)
